Literature values in patent US20140037713A1, “TRANSDERMAL COMPOSITIONS FOR ANTI-CHOLINERGIC AGENTS” (ANTARES PHARMA IPL, AG, priority 2012, published 2014).

Conditions: Ref. 2

## CCN(CC)CC#CCOC(=O)C(O)(c1ccccc1)C1CCCCC1 (racemic) [Oxybutynin, d,l (racemic) 4-diethylamino-2-butynyl phenylcyclohexylglycolate]
  Dissociation const. (pKa): 8.04
